Laboratory results as given in US20240003872A1, “METHODS FOR ASSAYING AND MEASURING THE EFFICACY OF ANTI-NAUSEA COMPOUNDS” (priority 2020, published 2024).
Entries after “also recorded” stand apart in the source; their conditions may differ.

Legend:
[1] = tested on: human intestinal smooth muscle cells (HISMCs); assay: HISMC/collagen matrix cell contraction assay; assay type: cell-based
Protocol: This assay was used to study the ability of […] to reorganize and contract in a collagen matrix. All procedures were done accordingly to protocols described by Dr. Alexander (5-HT3 dependent smooth muscle contraction assay, revised Aug. 30, 2012). The assay consisted in the preparation of collagen solution and in the polymerization and release of […]/collagen matrices. For 12 mL of collagen/[…], 15.0 mg of rat tail collagen was dissolved in 3.2 mL of cold 0.012M HCL. The solution was placed for 30 min in a rocker machine for gently agitation to avoid introducing bubbles. Then, 0.8 mL of cold PBS was added to the tube, mixed well, and kept on ice. The pH of the collagen solution was quickly titrated with 0.5 M NaOH to 7.45, and monitored by pH strips. The final collagen concentration was 1.25 mg/mL. The neutralized cold collagen solution was mixed with 12 mL of cold SMCM/1.5% dialyzed FBS containing […] at desire cell density (1×10^5 cells/mL). 0.5 mL of collagen/[…] mixture was added per well in 24-well plates and was incubated for 1 h at 37° C., 5% CO2. After collagen polymerization, 0.5 mL of culture medium with or without two-time concentration of drug treatments was added atop each collagen gel lattice. The polymerized collagen matrix containing […] was released from the edges of the well with a sterilized heat-blunted Pasteur pipette tip to allow them to float in culture medium, and contraction occurred with or without agonist addition in the absence of external mechanical load. The collagen gel size change (contraction index) was measured by morphometric analysis at various times (0, 24, 48, and 72 h). The culture plates were analyzed in triplicate and monitored at 24 h intervals. At the end of each time point, the plates were scanned via an Epson flatbed scanner.

[2] = tested on: college students with self-rated high susceptibility to motion sickness; conditions: 940 mg ginger root or 100 mg Dramamine 25-30 minutes prior to test; P < .001; cited from earlier work
[3] = tested on: women after laparascopic gynaecological surgery; conditions: ginger, 1.25 mg droperidol, vs placebo; cited from earlier work
[4] = tested on: Women undergoing gynecological surgery; conditions: 1.0 g ginger or 10 mg metochlopramide orally prior to surgery; P < .05; cited from earlier work
[5] = tested on: women after laparascopic gynaecological surgery; conditions: post-operative; given one hour prior to anaesthesia; placebo 41%; cited from earlier work

For `Cl.NCCc1c[nH]c2ccc(O)cc12` [5-HT, 5-Hydroxytryptamine hydrochloride], the “contraction of HISMC gels induced by agonist” value ([1]; 5-HT at 10^−7M, 10^−8M and 10^−9M) was “induced dose and time dependent contraction”.

For `C[C@@H](O[C@H]1OCCN(Cc2n[nH]c(=O)[nH]2)[C@H]1c1ccc(F)cc1)c1cc(C(F)(F)F)cc(C(F)(F)F)c1` [Aprepitant], the “effect on HISMC/collagen gel contraction” value ([1]; different concentrations, with or without 5-HT3) was “attenuated collagen gel contraction only at high concentrations, 10^−4 M and not significantly”.

For `Cc1nccn1CC1CCc2c(c3ccccc3n2C)C1=O` (centres unmarked) [Ondansetron], the “effect on 5-HT induced HISMC/collagen matrix contraction” value ([1]; with 5-HT (10^−7M), different concentrations, 0-72 h) was “reduced; also recorded: inhibited HISMCs contractions in a concentration- and time-dependent manner” and the “effect on HISMC/collagen matrix contraction without 5-HT” value ([1]; without 5-HT, different concentrations, 0-72 h) was “inhibited HISMCs contractions in a concentration- and time-dependent manner”.

In the case of `CN(C)CCOC(c1ccccc1)c1ccccc1` [diphenhydramine], the “reducing vection induced motion sickness versus placebo (time in induced motion)” value [2] is listed as “more effective than dried chickweed herb placebo”.

For `O=C(CCCN1CC=C(n2c(=O)[nH]c3ccccc32)CC1)c1ccc(F)cc1` [droperidol], the “decrease in nausea or vomiting post-surgery” value [3] is listed as “no differences”.

For `CCN(CC)CCNC(=O)c1cc(Cl)c(N)cc1OC` [metochlopramide], the “effectiveness versus placebo for post-operative nausea and vomiting control” value [4] is given as “significantly more effective than placebo” and the patients nauseated [5] is given as “placebo, 27%”.
